Patent publication US7576127B2, “Aromatic prodrugs of propofol, compositions and uses thereof” (XenoPort, Inc., priority 2003, dated 2009)

Key:
human SMVT (SLC5A6) = target: T1, human SMVT (SLC5A6) (Homo sapiens, UniProt Q9Y289); assay: Electrogenic transport in SMVT-expressing Xenopus oocytes (two-electrode voltage-clamp); type: cell-based; conditions: tested at 0.5 mM on oocytes expressing SMVT; membrane potential -60 mV
T1 construct: The complete open reading frame of human SMVT (SLC5A6) was amplified; expressed in transfected cells; host or cells: Xenopus oocytes injected with cRNA transcribed in vitro from the pMO plasmid
T1 sequence (Q9Y289 1-635): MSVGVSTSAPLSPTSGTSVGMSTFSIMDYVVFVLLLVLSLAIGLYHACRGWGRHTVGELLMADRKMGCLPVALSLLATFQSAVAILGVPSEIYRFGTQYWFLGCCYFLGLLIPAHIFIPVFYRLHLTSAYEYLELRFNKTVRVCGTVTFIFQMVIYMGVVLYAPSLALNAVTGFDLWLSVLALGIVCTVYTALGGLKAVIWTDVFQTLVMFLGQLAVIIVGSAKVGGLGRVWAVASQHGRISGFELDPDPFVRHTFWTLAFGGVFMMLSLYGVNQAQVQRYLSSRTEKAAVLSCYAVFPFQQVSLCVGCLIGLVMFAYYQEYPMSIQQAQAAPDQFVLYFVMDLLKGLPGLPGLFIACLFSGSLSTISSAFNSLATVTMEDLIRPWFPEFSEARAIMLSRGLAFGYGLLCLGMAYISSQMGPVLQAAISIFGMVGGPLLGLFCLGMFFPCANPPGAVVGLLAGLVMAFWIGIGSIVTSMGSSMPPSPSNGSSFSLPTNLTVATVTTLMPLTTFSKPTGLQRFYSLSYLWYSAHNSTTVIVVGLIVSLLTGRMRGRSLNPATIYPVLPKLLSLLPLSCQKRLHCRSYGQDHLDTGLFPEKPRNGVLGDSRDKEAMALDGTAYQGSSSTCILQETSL
Source text: Transporter Cloning: The complete open reading frame of human SMVT (SLC5A6) was amplified from human cDNA prepared from intestinal mRNA. Gene-specific oligonucleotide primers were designed against Genbank sequences (NM-021095). Amplified PCR products were cloned into a modified version of the mammalian expression vector pcDNA3 (termed pMO) that was engineered to contain the 5′ and 3′ untranslated regions from the Xenopus beta-globin gene. All clones were completely sequenced and tested for function by transient transfection in HEK293 cells. Radiolabeled ^3H biotin was used to assess SMVT function (see method below).
Xenopus Oocyte Expression and Electrophysiology: cRNA for oocyte expression was prepared by linearization of plasmid cDNA and in vitro transcription using T7 polymerase (Epicentre Ampliscribe kit). Xenopus oocytes were prepared and maintained as previously described (Collins et al., Proc. Natl. Acad. Sci. 1997, 13:5456-5460) and injected with 10-30 ng RNA. Transport currents were measured 2-6 days later using two-electrode voltage-clamp (Axon Instruments). […] Half-maximal concentrations were calculated using non-linear regression curve fitting software (Prism) with the Hill co-efficient fixed to 1. […]

[1] = oral dosing, rats; Raoof et al., Pharm. Res. 1996; cited from earlier work

Compound	SMVT-specific currents above background, normalized to maximal biotin elicited current (human SMVT (SLC5A6))	fraction of administered drug undergoing first pass metabolism [1]
CC(C)c1cccc(C(C)C)c1OC(=O)c1ccccc1C(=O)NCCC(=O)O [Compound 101, 3-{[2-[2,6-Bis(isopropyl)phenoxycarbonyl]-benzoyl]amino}-propanoic acid]	at least 10 % of Imax for biotin	
CC(C)c1cccc(C(C)C)c1O [Propofol, 2,6-diisopropylphenol]		approximately 90%
